Experimental data taken from PubChem BioAssay (NCI).
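1) Cells in 96-well plates. 2) Compound, 48 h, 5 concentrations. 3) Linear interpolation between surrounding doses. 4) Unreached endpoint = highest concentration. The concentration for full growth arrest is given as TGI.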

Columns and labels:
Test in all cases: NCI anticancer screen, dose series, 48 h
[1] = system: 786-0 renal
[2] = system: A498 renal
[3] = system: A549 NSCLC
[4] = system: ACHN renal
[5] = system: BT-549 breast
[6] = system: CAKI-1 renal
[7] = system: CCRF-CEM leukemia
[8] = system: COLO 205 colon
[9] = system: DLD-1 colon
[10] = system: DMS 114 small cell lung
[11] = system: DMS 273 small cell lung
[12] = system: DU-145 prostate
[13] = system: EKVX NSCLC
[14] = system: HCC-2998 colon
[15] = system: HCT-116 colon
[16] = system: HCT-15 colon
[17] = system: HL-60(TB) leukemia
[18] = system: HOP-18 NSCLC
[19] = system: HOP-62 NSCLC
[20] = system: HOP-92 NSCLC
[21] = system: HS 578T breast
[22] = system: HT29 colon
[23] = system: IGROV1 ovarian
[24] = system: K-562 leukemia
[25] = system: KM12 colon
[26] = system: KM20L2 colon
[27] = system: LOX IMVI melanoma
[28] = system: LXFL 529 NSCLC
[29] = system: M14 melanoma
[30] = system: M19-MEL melanoma
[31] = system: MALME-3M melanoma
[32] = system: MCF7 breast
[33] = system: MDA-MB-231 breast
[34] = system: MDA-MB-435
[35] = system: MDA-N
[36] = system: MOLT-4 leukemia
[37] = system: NCI-H226 lung
[38] = system: NCI-H23 lung
[39] = system: NCI-H460 lung
[40] = system: NCI-H522 lung
[41] = system: NCI/ADR-RES ovarian
[42] = system: OVCAR-3 ovarian
[43] = system: OVCAR-4 ovarian
[44] = system: OVCAR-5 ovarian
[45] = system: OVCAR-8 ovarian
[46] = system: PC-3 prostate
[47] = system: RPMI-8226 leukemia
[48] = system: RXF 393 renal
[49] = system: RXF-631 renal
[50] = system: SF-268 CNS
[51] = system: SF-295 CNS
[52] = system: SF-539 CNS
[53] = system: SK-MEL-2 melanoma
[54] = system: SK-MEL-28 melanoma
[55] = system: SK-MEL-5 melanoma
[56] = system: SK-OV-3 ovarian
[57] = system: SN12C renal
[58] = system: SNB-19 CNS
[59] = system: SNB-75 CNS
[60] = system: SNB-78 CNS
[61] = system: SR leukemia
[62] = system: SW-620 colon
[63] = system: T-47D breast
[64] = system: TK-10 renal
[65] = system: U251 CNS
[66] = system: UACC-257 melanoma
[67] = system: UACC-62 melanoma
[68] = system: UO-31 renal
[69] = system: XF 498 CNS

## CC(=O)N(O)CCCCCNC(=O)CCC(=O)N(O)CCCCCNC(=O)CCC(=O)N(O)CCCCCN
[1]
  TGI: > 100 µM
[2]
  TGI: > 100 µM
[3]
  TGI: > 100 µM
[4]
  TGI: > 100 µM
[5]
  TGI: > 100 µM
[6]
  TGI: > 100 µM
[7]
  TGI: > 54.4 µM
[8]
  TGI: > 100 µM
[9]
  TGI: > 100 µM
[10]
  TGI: > 100 µM
[11]
  TGI: > 100 µM
[12]
  TGI: > 60.1 µM
[13]
  TGI: > 100 µM
[14]
  TGI: > 100 µM
[15]
  TGI: > 100 µM
[16]
  TGI: > 100 µM
[17]
  TGI: > 76.9 µM
[18]
  TGI: 83.2 µM
[19]
  TGI: > 100 µM
[20]
  TGI: > 100 µM
[21]
  TGI: > 100 µM
[22]
  TGI: > 100 µM
[23]
  TGI: > 100 µM
[24]
  TGI: > 100 µM
[25]
  TGI: > 100 µM
[26]
  TGI: > 100 µM
[27]
  TGI: > 100 µM
[28]
  TGI: > 100 µM
[29]
  TGI: > 100 µM
[30]
  TGI: > 100 µM
[31]
  TGI: > 100 µM
[32]
  TGI: > 100 µM
[33]
  TGI: > 100 µM
[34]
  TGI: > 100 µM
[35]
  TGI: > 100 µM
[36]
  TGI: > 82.8 µM
[37]
  TGI: > 92.3 µM
[38]
  TGI: > 100 µM
[39]
  TGI: > 54.9 µM
[40]
  TGI: > 100 µM
[41]
  TGI: > 100 µM
[42]
  TGI: > 100 µM
[43]
  TGI: > 100 µM
[44]
  TGI: 84 µM
[45]
  TGI: > 100 µM
[46]
  TGI: > 100 µM
[47]
  TGI: > 100 µM
[48]
  TGI: > 100 µM
[49]
  TGI: > 100 µM
[50]
  TGI: > 100 µM
[51]
  TGI: > 100 µM
[52]
  TGI: > 92.3 µM
[53]
  TGI: > 100 µM
[54]
  TGI: > 100 µM
[55]
  TGI: > 85.5 µM
[56]
  TGI: > 100 µM
[57]
  TGI: > 100 µM
[58]
  TGI: > 100 µM
[59]
  TGI: > 100 µM
[60]
  TGI: > 100 µM
[61]
  TGI: > 77.5 µM
[62]
  TGI: > 100 µM
[63]
  TGI: > 100 µM
[64]
  TGI: > 100 µM
[65]
  TGI: > 100 µM
[66]
  TGI: > 100 µM
[67]
  TGI: > 100 µM
[68]
  TGI: > 100 µM
[69]
  TGI: > 100 µM

## Nc1ccc(S(=O)(=O)Nc2cnc3ccccc3n2)cc1
[1]
  TGI: > 100 µM
[2]
  TGI: > 100 µM
[3]
  TGI: > 100 µM
[4]
  TGI: > 100 µM
[5]
  TGI: > 100 µM
[6]
  TGI: > 100 µM
[7]
  TGI: > 100 µM
[8]
  TGI: > 100 µM
[9]
  TGI: > 100 µM
[10]
  TGI: > 100 µM
[11]
  TGI: > 100 µM
[12]
  TGI: > 100 µM
[13]
  TGI: > 100 µM
[14]
  TGI: > 100 µM
[15]
  TGI: > 100 µM
[16]
  TGI: > 100 µM
[17]
  TGI: > 100 µM
[18]
  TGI: > 100 µM
[19]
  TGI: > 100 µM
[20]
  TGI: > 100 µM
[21]
  TGI: 35.3 µM
[22]
  TGI: > 100 µM
[23]
  TGI: > 100 µM
[24]
  TGI: > 100 µM
[25]
  TGI: > 100 µM
[26]
  TGI: > 100 µM
[27]
  TGI: > 100 µM
[28]
  TGI: > 100 µM
[29]
  TGI: > 100 µM
[30]
  TGI: > 100 µM
[31]
  TGI: > 100 µM
[33]
  TGI: > 100 µM
[34]
  TGI: > 100 µM
[35]
  TGI: > 100 µM
[36]
  TGI: > 100 µM
[37]
  TGI: > 100 µM
[38]
  TGI: > 100 µM
[39]
  TGI: > 100 µM
[40]
  TGI: > 100 µM
[41]
  TGI: > 100 µM
[42]
  TGI: > 100 µM
[43]
  TGI: > 100 µM
[44]
  TGI: > 100 µM
[45]
  TGI: > 100 µM
[46]
  TGI: > 100 µM
[47]
  TGI: > 100 µM
[48]
  TGI: > 100 µM
[49]
  TGI: > 100 µM
[50]
  TGI: > 100 µM
[51]
  TGI: > 100 µM
[52]
  TGI: > 100 µM
[53]
  TGI: > 100 µM
[54]
  TGI: > 100 µM
[55]
  TGI: > 100 µM
[56]
  TGI: > 100 µM
[57]
  TGI: > 100 µM
[58]
  TGI: > 100 µM
[59]
  TGI: > 100 µM
[60]
  TGI: > 100 µM
[61]
  TGI: > 100 µM
[62]
  TGI: > 100 µM
[63]
  TGI: > 100 µM
[64]
  TGI: > 100 µM
[65]
  TGI: > 100 µM
[66]
  TGI: > 100 µM
[67]
  TGI: > 100 µM
[68]
  TGI: > 100 µM
[69]
  TGI: > 100 µM
